Source: US6902931B1 (priority 1998, dated 2005)

Tests used:
[1] = tested on: NIH/3T3 murine fibroblasts; conditions: mouse, pH 7.4
[2] = tested on: 3T3 fibroblasts; test: Volumetric response of porated cells in hypertonic sugar solution (sugar uptake); format: cell-based, murine
Method: Sugar may be added to the cell suspension in an HBS solution to the final desired concentration. Porated cells may be incubated in the sugar containing solution for 45 minutes. […] Of course the length of time required for sugar uptake may vary with the type of cell and the level of cell poration. Sugar uptake may be measured by both the uptake of radiolableled sugar into porated cells as well as by the volumetric response of porated cells placed in a hypertonic sugar solution, yielding statistically correlative results.
Following poration, 0-1.0 M trehalose (final concentration) in HBS solution (Sigma) was added to the cell suspension, as indicated in FIG. 4. To allow for trehalose uptake, porated cells were incubated in the solution for 45 min. […] [Russo et al., “Reversible permeabilization of plasma membranes with an engineered switchable pore,” Nature Biotech. 15, 278-282 (1997).] This uptake was measured by both the uptake of radiolableled sugar into porated cells as well as by the volumetric response of porated cells placed in a hypertonic sugar solution, yielding statistically correlative results. By repeating the volumetric experiments using hypertonic trehalose solutions and 25 μg/ml of porating agent, volumetric equilibration over 90% over a 45 min interval was achieved, indicating the equilibration of intracellular trehalose concentration with that of the suspending solution.

[3] = tested on: NIH/3T3 murine fibroblasts; test: Viability after vacuum drying and rehydration; format: cell-based; conditions: H5-porated; for protection of cells subjected to vacuum drying: 0.3 M sugar; for cells that successfully attached at three hours / survival rate: 0.3M sugar; for cells that successfully attached at three hours: vacuum dried 2 hours at ambient temperature, rehydrated; for survival rate: vacuum dried, adjusted for cell loss using control samples
Method: The efficacy of intracellular trehalose for vacuum dried fibroblasts was also tested. NIH/3T3 murine fibroblasts, prepared as in Example 1, were resuspended in phosphate buffered saline (PBS) solution and the cell density was counted. Cell density was then adjusted to 100,000 cells/ml by diluting with PBS and the sample was divided into three equal aliquots of 4.0 ml each. To each aliquot, 1.0 ml of 25 μg/ml H5 was added, reducing cell density to 8×10^4. The aliquots were incubated at room temperature for 15 minutes with occasional mixing.
In the first two aliquots, enough 1.0M stock solution of either trehalose or sucrose in PBS was added to obtain a final sugar concentration of 0.3M. In the third aliquot, an equivalent amount of PBS, without sugar, was added.
The three aliquots were dispersed in triplicate wells at 20 μl/well into four duplicate 12-well plates. Two of the twelve well plates were incubated at 37° C. and 10% CO2 as controls. The remaining two plates were vacuum dried for 2 hours at ambient temperature. After drying, the dried samples were rehydrated and the poration reversed with serum containing DMEM.
Viability assays were performed by counting attached cells at 3 hours, and cells that remained attached and divided during the next 24 hours. The experiments were repeated three times. […] Adjusting for cell loss due to handling, poration, etc. using the control samples, survival rates of 4% for the cells dried in trehalose and 3% for the cells dried in sucrose were obtained.

[4] = tested on: NIH/3T3 murine fibroblasts; test: Clonogenic assay; format: cell-based; conditions: post-thaw; H5 and 0.4 M trehalose; from approximately 200±12 plated cells, one week
Method: For each condition, approximately 200 of the cells that had plated in 3 hours were replated in a […] for one week. To obtain 200 fibroblasts, cells were diluted to 2×10^5 cells/ml, and 1 μl of cell solution was introduced into a P60 petri dish (Falcon) containing 12 ml of DMEM with BCS. After one week, cells were fixed by a 0.5% glutaraldehyde wash and stained by Rhodamine B (Sigma) to enhance colony visibility. The number of colonies formed was determined by visual inspection.

[5] = in vitro; conditions: mouse, pH 7.4
[6] = tested on: NIH/3T3 murine fibroblasts

In the case of `OC[C@H]1O[C@H](O[C@H]2O[C@H](CO)[C@@H](O)[C@H](O)[C@H]2O)[C@H](O)[C@@H](O)[C@@H]1O` [Trehalose, trehalose], the “viability and function after 1 hour” value [1] is reported as 70-80%, the “trehalose concentration at which fibroblasts reach minimum volume” value ([2]; data not shown) is reported as “about 0.4 M” and the volumetric equilibration ([2]; hypertonic trehalose solutions, 25 μg/ml porating agent, 45 min interval) is reported as “over 90%”. For the same molecule, the “protection of cells subjected to vacuum drying” value [3] was “effective in protecting cells subjected to vacuum drying”, the “cells that successfully attached at three hours” value [3] was 48±3 cells and the survival rate [3] was 4%. For the same molecule, the colonies formed [4] was 211.6±5.2 colonies, the viability [5] was 10% and the “additional loss of porated cells (18 hours growth)” value [6] was 10%. The “fibroblasts withstanding osmotic shock (18 hours growth)” value [6] was “over 95%”, the “higher than all control data to which trehalose was not added” value [6] was 70-80% and the “loss of population between 1 hour and 3h / 18 hours” value [6] was “over 60%”. For the same molecule, the “loss of viability or function” value [6] was “did not demonstrate a significant loss of viability” and the population loss [6] was “loss of half of their populations”.

For `OC[C@H]1O[C@@](CO)(O[C@H]2O[C@H](CO)[C@@H](O)[C@H](O)[C@H]2O)[C@@H](O)[C@@H]1O` [sucrose], the “protection of cells subjected to vacuum drying” value [3] was “effective in protecting cells subjected to vacuum drying”, the “cells that successfully attached at three hours” value [3] was 36±3 cells and the survival rate [3] was 3%.
